Patent US7264925B2, “Method for analysis of oligonucleotide analogs” (AVI BioPharma, Inc., priority 2000, dated 2007)
Several values for one entry are separate records, joined by “and”; a condition that tells them apart may be missing. Equal entries are not always repeated.

Test: Quantitation of PMO in plasma of cynomolgus monkeys following i.v. injection (anion exchange HPLC of the duplex with 5'-fluorescein labeled DNA)
Type: in vivo
Procedure: • HPLC conditions: • Column: Dionex DNA Pac™ PA-100 (250×4 mm, 15μ particle size) • Mobile Phases: A: 0.025 M Tris (pH 9); B: 0.025 M Tris (pH 9)/1 M NaCl • Gradient: A:B:C 90/10 @ 0 min to 55/45 @ 20 min • Flow Rate: 1.5 mL/min • Wavelength: 494 nm excitation; 518 detection • Temperature: 25° C.
Cynomolgus monkeys were injected i.v. with the analyte PMO, and blood samples were taken at various time intervals, as shown in Table 2. In a typical analysis, 200 μL of plasma was combined with a known amount (e.g. 500 ng) of internal standard (FIG. 11) in 10 μL of 0.025 M Tris buffer, pH 8-9. Methanol (200.0 μL) was added, and the sample was mixed using a vortex mixer. The precipitate was removed with the aid of high speed centrifugation. The supernatant was removed and the pellet washed with 100 μL Tris buffer; the wash was added to the supernatant. The mixture was heated at 70° C. for a period of 10 minutes, and the sample was once again subjected to high speed centrifugation. The supernatant was transferred and lyophilized to dryness. The dry material was reconstituted with a 100.0 μL aliquot of DNA (5′-fluorescein labeled) in 0.025 M Tris (pH 8-9) and transferred to an autosampler vial, and the entire sample was injected onto the HPLC column and analyzed.
A calibration was performed by analysis of plasma standards containing from 250 to 20,000 ng of AVI-4126. The data were plotted as the ratio of analyte to internal standard signal intensities versus the ratio of analyte to internal standard concentrations.
The level detected in this assay was 10.0 ng analyte, which corresponded to 50 ng/mL. The sensitivity of this method thus far exceeds the detection and quantitation limits of UV based methods.

Substance: PMO: PMO (phosphorodiamidate morpholino oligomer) having the sequence ACGTTGAGGGGCATCGTCGC (SEQ ID NO: 1), antisense to human c-myc (antisense ACGTTGAGGGGCATCGTCGC; all phosphorodiamidate morpholino (PMO))
- level detected in representative assay (FIG. 12), amount of analyte (200 μL plasma sample, representative assay, time point not stated): 10.0 ng
- level detected in representative assay (FIG. 12), plasma concentration (corresponds to 10.0 ng analyte in plasma sample, time point not stated): 50 ng/mL
- Quantitation of PMO in plasma, 10 min (cynomolgus monkey plasma, i.v. injection, 10 min, one value per monkey ID): 92.505 µg/mL and 105.37 µg/mL and 105.685 µg/mL
- Quantitation of PMO in plasma, 2 h (cynomolgus monkey plasma, i.v. injection, 2 h, one value per monkey ID): 49.895 µg/mL and 68.025 µg/mL and 49.755 µg/mL
- Quantitation of PMO in plasma, 6 hr (cynomolgus monkey plasma, i.v. injection, 6 hr, one value per monkey ID): 29.81 µg/mL and 45.33 µg/mL and 32.015 µg/mL
- Quantitation of PMO in plasma, 24 hr (cynomolgus monkey plasma, i.v. injection, 24 hr, one value per monkey ID): 17.575 µg/mL and 14.895 µg/mL and 12.645 µg/mL
